Test results as given in patent US11459315B2, “Modulators of methyl modifying enzymes, compositions and uses thereof” (Constellation Pharmaceuticals, Inc., priority 2017, dated 2022).
Read-outs that look alike come from different tables or passages of the source.

Columns and labels:
PRC2 containing wt EZH2 = PRC2 containing wt EZH2 (Homo sapiens (Human), UniProt Q15910); assay: EZH2 biochemical assay (IC50), 3H-SAM incorporation into biotinylated H3 peptide; conditions: 30 pM PRC2 containing wt EZH2, 3-5 h pre-incubation
Summary of the method: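 The PRC2 pentamer with wt EZH2 (30 pM) was pre-incubated for 3-5 h with 450 nM SAM plus 450 nM ³H-SAM, 2 µM H3K27me3 activating peptide and compound (0.8% DMSO) in Tris at pH 8.5. Biotinylated H3K27me1 peptide was added and the reaction ran 18-22 h at RT. Incorporated ³H was captured on streptavidin plates, and IC50 was taken from a four-parameter fit.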

[1] = test system: H3K27me3 mark in HeLa cells (EZH2); assay: H3K27me3 Alpha Hela Assay (AlphaLISA); assay type: cell-based; conditions: Homo sapiens, HeLa, 72 h, HeLa cells, 72 hrs; read-out: EZH2 Cell H3K27me3 Alpha HeLa (EC50 K27me3)
Summary of the method: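 HeLa cells (1,000/well) treated with ten 3-fold compound doses for 72 h at 37 °C; lysates extracted and H3K27me3 detected by AlphaLISA with anti-K27me3 acceptor beads, biotinylated anti-H3 (3 nM) and streptavidin donor beads. EC50 from DMSO-normalized dose-response curves; duplicate plate assessed viability.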

PRC2 containing wt EZH2, sequence (Q15910 whole entry): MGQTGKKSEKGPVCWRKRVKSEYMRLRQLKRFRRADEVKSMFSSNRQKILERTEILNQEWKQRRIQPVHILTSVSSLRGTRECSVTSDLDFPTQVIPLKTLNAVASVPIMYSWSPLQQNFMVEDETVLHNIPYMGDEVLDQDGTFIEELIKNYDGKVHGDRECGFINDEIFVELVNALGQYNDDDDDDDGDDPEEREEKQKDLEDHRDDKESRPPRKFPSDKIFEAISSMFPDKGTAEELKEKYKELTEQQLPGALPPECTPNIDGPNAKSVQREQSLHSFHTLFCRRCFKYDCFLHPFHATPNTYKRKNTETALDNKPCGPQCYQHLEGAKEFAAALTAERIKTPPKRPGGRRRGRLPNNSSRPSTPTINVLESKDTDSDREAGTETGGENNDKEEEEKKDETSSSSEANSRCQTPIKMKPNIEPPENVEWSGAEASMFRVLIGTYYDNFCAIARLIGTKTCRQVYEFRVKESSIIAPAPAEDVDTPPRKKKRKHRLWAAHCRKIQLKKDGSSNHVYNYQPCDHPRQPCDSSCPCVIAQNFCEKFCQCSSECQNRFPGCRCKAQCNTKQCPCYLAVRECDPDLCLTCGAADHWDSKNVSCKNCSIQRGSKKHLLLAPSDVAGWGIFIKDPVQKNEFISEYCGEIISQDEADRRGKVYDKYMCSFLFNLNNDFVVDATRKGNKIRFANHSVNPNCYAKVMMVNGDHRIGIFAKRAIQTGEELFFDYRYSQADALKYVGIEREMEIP
PRC2 containing wt EZH2, sequence (O75530 whole entry partner): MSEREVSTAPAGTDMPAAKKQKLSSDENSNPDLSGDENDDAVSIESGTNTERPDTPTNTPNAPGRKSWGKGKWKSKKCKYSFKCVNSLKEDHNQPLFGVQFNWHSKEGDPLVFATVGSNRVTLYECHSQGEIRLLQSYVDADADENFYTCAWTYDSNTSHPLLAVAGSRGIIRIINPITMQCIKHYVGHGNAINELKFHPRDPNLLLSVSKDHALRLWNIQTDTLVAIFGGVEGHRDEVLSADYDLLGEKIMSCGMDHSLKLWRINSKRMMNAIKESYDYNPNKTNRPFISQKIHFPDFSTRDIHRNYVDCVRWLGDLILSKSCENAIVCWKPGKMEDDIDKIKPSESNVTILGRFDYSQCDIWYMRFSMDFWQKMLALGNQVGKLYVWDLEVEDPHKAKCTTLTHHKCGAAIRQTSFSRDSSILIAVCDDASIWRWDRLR
PRC2 containing wt EZH2, sequence (Q15022 whole entry partner): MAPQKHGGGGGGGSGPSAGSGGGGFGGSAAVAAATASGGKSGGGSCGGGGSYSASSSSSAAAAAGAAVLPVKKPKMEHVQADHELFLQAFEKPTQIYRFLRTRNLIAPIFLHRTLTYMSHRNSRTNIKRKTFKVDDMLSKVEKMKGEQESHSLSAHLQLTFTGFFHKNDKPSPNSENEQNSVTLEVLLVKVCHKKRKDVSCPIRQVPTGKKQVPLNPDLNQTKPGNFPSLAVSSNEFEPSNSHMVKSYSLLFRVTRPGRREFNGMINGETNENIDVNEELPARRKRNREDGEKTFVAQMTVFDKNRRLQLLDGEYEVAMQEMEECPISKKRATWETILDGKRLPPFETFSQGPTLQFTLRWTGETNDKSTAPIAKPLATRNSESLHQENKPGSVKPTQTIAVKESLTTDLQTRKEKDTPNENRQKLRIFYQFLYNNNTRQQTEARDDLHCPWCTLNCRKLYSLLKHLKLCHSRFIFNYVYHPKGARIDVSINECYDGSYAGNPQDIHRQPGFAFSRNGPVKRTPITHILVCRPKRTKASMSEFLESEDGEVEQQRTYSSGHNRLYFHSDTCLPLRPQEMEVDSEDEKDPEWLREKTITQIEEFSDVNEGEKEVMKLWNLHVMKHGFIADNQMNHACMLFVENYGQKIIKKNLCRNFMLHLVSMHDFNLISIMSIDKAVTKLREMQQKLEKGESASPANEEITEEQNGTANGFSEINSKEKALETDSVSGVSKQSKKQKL
PRC2 containing wt EZH2, sequence (Q09028 whole entry partner): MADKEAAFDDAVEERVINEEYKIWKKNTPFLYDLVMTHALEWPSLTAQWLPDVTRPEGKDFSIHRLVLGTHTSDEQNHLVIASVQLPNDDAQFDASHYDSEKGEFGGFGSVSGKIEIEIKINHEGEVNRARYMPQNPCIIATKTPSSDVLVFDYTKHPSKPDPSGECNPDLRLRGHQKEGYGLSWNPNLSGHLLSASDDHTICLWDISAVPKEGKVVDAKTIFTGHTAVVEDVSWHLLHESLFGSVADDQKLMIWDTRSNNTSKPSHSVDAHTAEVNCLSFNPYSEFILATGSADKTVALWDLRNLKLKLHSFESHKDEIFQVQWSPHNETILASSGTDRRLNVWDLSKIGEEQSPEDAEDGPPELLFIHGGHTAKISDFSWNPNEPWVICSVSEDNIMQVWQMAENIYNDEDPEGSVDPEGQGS
PRC2 containing wt EZH2, sequence (Q6ZN18 whole entry partner): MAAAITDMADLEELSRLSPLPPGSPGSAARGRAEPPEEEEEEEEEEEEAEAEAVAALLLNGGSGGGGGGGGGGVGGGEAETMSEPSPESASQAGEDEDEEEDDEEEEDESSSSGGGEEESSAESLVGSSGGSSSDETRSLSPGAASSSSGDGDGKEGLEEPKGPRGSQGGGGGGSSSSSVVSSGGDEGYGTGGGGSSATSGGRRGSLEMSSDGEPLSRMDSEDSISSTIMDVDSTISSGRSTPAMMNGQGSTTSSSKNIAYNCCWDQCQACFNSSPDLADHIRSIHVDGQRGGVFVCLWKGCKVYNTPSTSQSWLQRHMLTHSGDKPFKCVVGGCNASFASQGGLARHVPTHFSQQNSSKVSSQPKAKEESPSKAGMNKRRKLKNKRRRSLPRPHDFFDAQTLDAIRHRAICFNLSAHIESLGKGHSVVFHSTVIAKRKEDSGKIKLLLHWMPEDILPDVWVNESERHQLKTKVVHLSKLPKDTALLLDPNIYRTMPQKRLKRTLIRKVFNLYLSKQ

| SMILES | IC50 (PRC2 containing wt EZH2; read-out: EZH2 (IC50)) [nM] | EC50 [1] [nM] | IC50 (PRC2 containing wt EZH2; EZH2 (IC50)) [nM] |
| --- | --- | --- | --- |
| CSc1cc(C)[nH]c(=O)c1CNC(=O)c1c(C)n([C@H](C)C2CCC(NCC(F)(F)F)CC2)c2ncncc12 (stereo partly drawn) [Example 89, 6-methyl-N-((6-methyl-4-(methylthio)-2-oxo-1,2-dihydropyridin-3-yl)methyl)-7-((R)-1-(4-((2,2,2-trifluoroethyl)amino)cyclohexyl)ethyl)-7H-pyrrolo[2,3-d]pyrimidine-5-carboxamide] | < 0.5 | 10 to 100 | – |
| CSc1cc(C)[nH]c(=O)c1CNC(=O)c1c(C)n([C@H](C)C2CCN(CC(F)(F)F)CC2)c2cc(F)ccc12 [Example 92, (R)-6-fluoro-2-methyl-N-((6-methyl-4-(methylthio)-2-oxo-1,2-dihydropyridin-3-yl)methyl)-1-(1-(1-(2,2,2-trifluoroethyl)piperidin-4-yl)ethyl)-1H-indole-3-carboxamide] | – | < 10 | < 0.5 |
| COC1CN(C2CCC([C@@H](C)n3c(C)c(C(=O)NCc4c(SCF)cc(C)[nH]c4=O)c4ccccc43)CC2)C1 (stereo partly drawn) [Example 93, N-((4-((fluoromethyl)thio)-6-methyl-2-oxo-1,2-dihydropyridin-3-yl)methyl)-1-((R)-1-(4-(3-methoxyazetidin-1-yl)cyclohexyl)ethyl)-2-methyl-1H-indole-3-carboxamide] | < 0.5 | 10 to 100 | – |
| CSc1cc(C)[nH]c(=O)c1CNC(=O)c1c(C)n([C@H](C)C2CCC(N3CCC(F)(F)C3)CC2)c2ccccc12 (stereo partly drawn) [Example 95, 1-((R)-1-(4-(3,3-difluoropyrrolidin-1-yl)cyclohexyl)ethyl)-2-methyl-N-((6-methyl-4-(methylthio)-2-oxo-1,2-dihydropyridin-3-yl)methyl)-1H-indole-3-carboxamide] | < 0.5 | < 10 | – |
| CSc1cc(C)[nH]c(=O)c1CNC(=O)c1c(C)n([C@H](C)C2CCC(N3CC(C(F)F)C3)CC2)c2ncccc12 (stereo partly drawn) [Example 96, 1-((R)-1-(4-(3-(difluoromethyl)azetidin-1-yl)cyclohexyl)ethyl)-2-methyl-N-((6-methyl-4-(methylthio)-2-oxo-1,2-dihydropyridin-3-yl)methyl)-1H-pyrrolo[2,3-b]pyridine-3-carboxamide] | < 0.5 | < 10 | – |
| CSc1cc(C)[nH]c(=O)c1CNC(=O)c1c(C)n([C@H](C)C2CCN(CC(F)(F)F)CC2)c2cccc(C#N)c12 [Example 97, (R)-4-cyano-2-methyl-N-((6-methyl-4-(methylthio)-2-oxo-1,2-dihydropyridin-3-yl)methyl)-1-(1-(1-(2,2,2-trifluoroethyl)piperidin-4-yl)ethyl)-1H-indole-3-carboxamide] | > 5 | > 100 | – |
| CSc1cc(C)[nH]c(=O)c1CNC(=O)c1c(C)n([C@H](C)C2CCC(N3CC(F)C3)CC2)c2ncc(Cl)cc12 (stereo partly drawn) [Example 98, 5-chloro-1-((R)-1-(4-(3-fluoroazetidin-1-yl)cyclohexyl)ethyl)-2-methyl-N-((6-methyl-4-(methylthio)-2-oxo-1,2-dihydropyridin-3-yl)methyl)-1H-pyrrolo[2,3-b]pyridine-3-carboxamide] | – | < 10 | < 0.5 |
| COC1CN(C2CCC([C@@H](C)n3c(C)c(C(=O)NCc4c(SC5CC5)cc(C)[nH]c4=O)c4ccccc43)CC2)C1 (stereo partly drawn) [Example 99, N-((4-(cyclopropylthio)-6-methyl-2-oxo-1,2-dihydropyridin-3-yl)methyl)-1-((R)-1-(4-(3-methoxyazetidin-1-yl)cyclohexyl)ethyl)-2-methyl-1H-indole-3-carboxamide] | < 0.5 | 10 to 100 | – |
| CSc1cc(C)[nH]c(=O)c1CNC(=O)c1c(C)n([C@H](C)C2CCC(N3CC(OC4CC4)C3)CC2)c2ccccc12 (stereo partly drawn) [Example 100, 1-((R)-1-(4-(3-cyclopropoxyazetidin-1-yl)cyclohexyl)ethyl)-2-methyl-N-((6-methyl-4-(methylthio)-2-oxo-1,2-dihydropyridin-3-yl)methyl)-1H-indole-3-carboxamide] | < 0.5 | < 10 | – |
| COc1cccc2c1c(C(=O)NCc1c(SC)cc(C)[nH]c1=O)c(C)n2[C@H](C)C1CCN(CC(F)(F)F)CC1 [Example 101, (R)-4-methoxy-2-methyl-N-((6-methyl-4-(methylthio)-2-oxo-1,2-dihydropyridin-3-yl)methyl)-1-(1-(1-(2,2,2-trifluoroethyl)piperidin-4-yl)ethyl)-1H-indole-3-carboxamide] | 0.5 to 5 | 10 to 100 | – |
| CSc1cc(C)[nH]c(=O)c1CNC(=O)c1c(C)n([C@H](C)C2CCN(CC(F)(F)F)CC2)c2cccc(Cl)c12 [Example 103, (R)-4-chloro-2-methyl-N-((6-methyl-4-(methylthio)-2-oxo-1,2-dihydropyridin-3-yl)methyl)-1-(1-(1-(2,2,2-trifluoroethyl)piperidin-4-yl)ethyl)-1H-indole-3-carboxamide] | – | < 10 | < 0.5 |
| Cc1cc(SC(F)F)c(CNC(=O)c2c(C)n([C@H](C)C3CCN(CC(F)(F)F)CC3)c3ccccc23)c(=O)[nH]1 [Example 105, (R)-N-((4-((difluoromethyl)thio)-6-methyl-2-oxo-1,2-dihydropyridin-3-yl)methyl)-2-methyl-1-(1-(1-(2,2,2-trifluoroethyl)piperidin-4-yl)ethyl)-1H-indole-3-carboxamide] | 0.5 to 5 | 10 to 100 | – |
| CSc1cc(C)[nH]c(=O)c1CNC(=O)c1c(C)n([C@H](C)C2CCC(N3CC[C@@H](F)C3)CC2)c2ncc(Cl)cc12 (stereo partly drawn) [Example 107, 5-chloro-1-((R)-1-(4-((R)-3-fluoropyrrolidin-1-yl)cyclohexyl)ethyl)-2-methyl-N-((6-methyl-4-(methylthio)-2-oxo-1,2-dihydropyridin-3-yl)methyl)-1H-pyrrolo[2,3-b]pyridine-3-carboxamide] | < 0.5 | 10 to 100 | – |
| CSc1cc(C)[nH]c(=O)c1CNC(=O)c1c(C)n([C@H](C)C2CCC(N3CC(OC(F)F)C3)CC2)c2ncncc12 (stereo partly drawn) [Example 108, 7-((R)-1-(4-(3-(difluoromethoxy)azetidin-1-yl)cyclohexyl)ethyl)-6-methyl-N-((6-methyl-4-(methylthio)-2-oxo-1,2-dihydropyridin-3-yl)methyl)-7H-pyrrolo[2,3-d]pyrimidine-5-carboxamide] | < 0.5 | < 10 | – |
| Cc1cc(SC2CCC2)c(CNC(=O)c2c(C)n([C@H](C)C3CCN(CC(F)(F)F)CC3)c3ccccc23)c(=O)[nH]1 [Example 109, (R)-N-((4-(cyclobutylthio)-6-methyl-2-oxo-1,2-dihydropyridin-3-yl)methyl)-2-methyl-1-(1-(1-(2,2,2-trifluoroethyl)piperidin-4-yl)ethyl)-1H-indole-3-carboxamide] | < 0.5 | 10 to 100 | – |
| CSc1cc(C)[nH]c(=O)c1CNC(=O)c1c(C)n([C@H](C)C2CCC(N3CC(C(F)(F)F)C3)CC2)c2ncccc12 (stereo partly drawn) [Example 110, 2-methyl-N-((6-methyl-4-(methylthio)-2-oxo-1,2-dihydropyridin-3-yl)methyl)-1-((R)-1-(4-(3-(trifluoromethyl)azetidin-1-yl)cyclohexyl)ethyl)-1H-pyrrolo[2,3-b]pyridine-3-carboxamide] | < 0.5 | 10 to 100 | – |
| CSc1cc(C)[nH]c(=O)c1CNC(=O)c1c(C)n([C@H](C)C2CCC(N3CCC(OC4CC4)C3)CC2)c2ncccc12 (stereo partly drawn) [Example 111, 1-((1R)-1-(4-(3-cyclopropoxypyrrolidin-1-yl)cyclohexyl)ethyl)-2-methyl-N-((6-methyl-4-(methylthio)-2-oxo-1,2-dihydropyridin-3-yl)methyl)-1H-pyrrolo[2,3-b]pyridine-3-carboxamide] | < 0.5 | 10 to 100 | – |
| CSc1cc(C)[nH]c(=O)c1CNC(=O)c1c(C)n([C@H](C)C2CCN(CC(F)(F)F)CC2)c2cccc(C(F)F)c12 [Example 114, (R)-4-(difluoromethyl)-2-methyl-N-((6-methyl-4-(methylthio)-2-oxo-1,2-dihydropyridin-3-yl)methyl)-1-(1-(1-(2,2,2-trifluoroethyl)piperidin-4-yl)ethyl)-1H-indole-3-carboxamide] | > 5 | > 100 | – |
| CSc1cc(C)[nH]c(=O)c1CNC(=O)c1c(C)n([C@H](C)C2CCC(N3CC(OC(F)F)C3)CC2)c2ncc(C)cc12 (stereo partly drawn) [Example 115, 1-((R)-1-(4-(3-(difluoromethoxy)azetidin-1-yl)cyclohexyl)ethyl)-2,5-dimethyl-N-((6-methyl-4-(methylthio)-2-oxo-1,2-dihydropyridin-3-yl)methyl)-1H-pyrrolo[2,3-b]pyridine-3-carboxamide] | < 0.5 | < 10 | – |
| CSc1cc(C)[nH]c(=O)c1CNC(=O)c1c(C)n([C@H](C)C2CCC(N3CC(OCC(F)F)C3)CC2)c2ncccc12 (stereo partly drawn) [Example 116, 1-((R)-1-(4-(3-(2,2-difluoroethoxy)azetidin-1-yl)cyclohexyl)ethyl)-2-methyl-N-((6-methyl-4-(methylthio)-2-oxo-1,2-dihydropyridin-3-yl)methyl)-1H-pyrrolo[2,3-b]pyridine-3-carboxamide] | < 0.5 | < 10 | – |
| CC[C@@H](C1CCC(N2CC(OC(F)F)C2)CC1)n1c(C)c(C(=O)NCc2c(SC)cc(C)[nH]c2=O)c2cccnc21 (stereo partly drawn) [Example 117, 1-((S)-1-(4-(3-(difluoromethoxy)azetidin-1-yl)cyclohexyl)propyl)-2-methyl-N-((6-methyl-4-(methylthio)-2-oxo-1,2-dihydropyridin-3-yl)methyl)-1H-pyrrolo[2,3-b]pyridine-3-carboxamide] | 0.5 to 5 | 10 to 100 | – |
